These results are taken from ChEMBL document CHEMBL2203039, “Azabenzthiazole inhibitors of leukotriene A₄ hydrolase” (Bioorg Med Chem Lett, 2012).

For data set [1], the species on record is Mus musculus. The data set can be described thus: animal or person. In kind it is functional, organism-based. The note with it: Balb/c, Blood.
For data set [2], the target named is T1, Voltage-gated inwardly rectifying potassium channel KCNH2 (Homo sapiens, UniProt Q12809). Briefly: Inhibition of dofetilide binding to human ERG by radioligand binding assay.
T1 sequence (Q12809 whole entry): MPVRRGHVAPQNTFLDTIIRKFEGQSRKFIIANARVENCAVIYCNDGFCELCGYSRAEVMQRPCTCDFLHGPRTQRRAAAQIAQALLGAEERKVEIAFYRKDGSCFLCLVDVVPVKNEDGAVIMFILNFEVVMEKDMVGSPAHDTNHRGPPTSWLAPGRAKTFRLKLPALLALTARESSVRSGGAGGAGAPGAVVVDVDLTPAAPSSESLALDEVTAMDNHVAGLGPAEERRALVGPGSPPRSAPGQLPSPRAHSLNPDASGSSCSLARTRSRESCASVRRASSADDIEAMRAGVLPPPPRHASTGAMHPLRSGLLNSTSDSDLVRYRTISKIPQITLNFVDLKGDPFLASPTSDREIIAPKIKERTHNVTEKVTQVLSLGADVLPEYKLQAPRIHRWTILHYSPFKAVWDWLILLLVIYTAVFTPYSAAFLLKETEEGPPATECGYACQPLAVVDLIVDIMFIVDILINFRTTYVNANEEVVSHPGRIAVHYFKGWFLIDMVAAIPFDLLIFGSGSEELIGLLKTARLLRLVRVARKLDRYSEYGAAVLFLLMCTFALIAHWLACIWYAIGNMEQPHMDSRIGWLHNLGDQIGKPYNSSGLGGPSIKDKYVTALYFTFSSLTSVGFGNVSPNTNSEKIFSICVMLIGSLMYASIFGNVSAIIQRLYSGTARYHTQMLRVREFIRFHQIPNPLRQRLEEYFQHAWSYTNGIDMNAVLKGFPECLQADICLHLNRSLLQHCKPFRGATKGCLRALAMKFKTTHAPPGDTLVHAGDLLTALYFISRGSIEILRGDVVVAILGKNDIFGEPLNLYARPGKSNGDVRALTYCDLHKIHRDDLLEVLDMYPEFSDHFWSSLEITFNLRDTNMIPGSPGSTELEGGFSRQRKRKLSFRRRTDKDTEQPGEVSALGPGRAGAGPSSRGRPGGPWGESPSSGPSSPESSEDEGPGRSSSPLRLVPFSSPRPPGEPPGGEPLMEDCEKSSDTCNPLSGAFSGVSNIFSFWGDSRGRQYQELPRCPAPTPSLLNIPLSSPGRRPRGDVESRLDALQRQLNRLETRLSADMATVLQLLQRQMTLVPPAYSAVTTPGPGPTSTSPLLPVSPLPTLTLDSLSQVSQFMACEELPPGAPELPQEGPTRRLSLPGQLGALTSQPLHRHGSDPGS
The species named for data set [3] is Mus musculus. The data set can be described thus: animal or person. The format is functional. The note with it: Balb/c, 3 h, route oral.
The species named for data set [4] is Mus musculus. Briefly: animal or person. The format is functional. The note with it: Balb/c, Blood, 3 h, route oral.
The target in data set [5] is T2, Leukotriene A-4 hydrolase (Homo sapiens, UniProt P09960).
T2 sequence (P09960 whole entry): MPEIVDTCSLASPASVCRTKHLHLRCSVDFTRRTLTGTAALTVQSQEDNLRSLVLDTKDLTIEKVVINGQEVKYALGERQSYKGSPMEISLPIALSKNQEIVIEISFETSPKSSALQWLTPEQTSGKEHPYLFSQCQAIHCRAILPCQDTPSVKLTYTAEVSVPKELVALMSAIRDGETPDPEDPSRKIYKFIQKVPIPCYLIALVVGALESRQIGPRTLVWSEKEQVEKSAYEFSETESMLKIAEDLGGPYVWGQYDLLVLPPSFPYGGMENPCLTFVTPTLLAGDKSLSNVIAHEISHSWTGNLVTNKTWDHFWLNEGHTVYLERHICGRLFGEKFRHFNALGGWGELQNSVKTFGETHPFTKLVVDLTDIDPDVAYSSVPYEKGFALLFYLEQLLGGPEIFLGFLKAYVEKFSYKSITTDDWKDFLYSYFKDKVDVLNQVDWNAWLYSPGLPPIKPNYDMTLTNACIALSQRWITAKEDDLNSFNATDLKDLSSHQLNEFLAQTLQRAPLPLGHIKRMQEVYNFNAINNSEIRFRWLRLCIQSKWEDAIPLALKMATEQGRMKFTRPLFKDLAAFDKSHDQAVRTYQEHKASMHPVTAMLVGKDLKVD
The data set can be described thus: Inhibition of human recombinant LTA4 hydrolase expressed in SF9 cells using LTA4 as substrate assessed as LTB4 production incubated for 10 mins prior to substrate addition measured after 10 to 30 mins by enzyme immunoassay. In kind it is cell-based.

The target in data set [6] is T1, Voltage-gated inwardly rectifying potassium channel KCNH2. Briefly: Inhibition of human ERG by patch clamp assay.
Data set [7] is described as follows: Cmax in rat at 10 mg/kg, po. Conditions: in vivo. The format is ADME, organism-based. Also on record: dose 10 mg/kg, route oral.
Data set [8] can be described thus: Oral bioavailability in rat at 10 mg/kg. In kind it is ADME, organism-based. The note with it: in vivo.
A short description of data set [9]: Clearance in rat at 2 mg/kg, iv. The note with it: in vivo. In kind it is ADME, organism-based. Also on record: dose 2 mg/kg, route intravenous.
A short description of data set [10]: Volume of distribution at steady state in rat at 2 mg/kg, iv. The format is ADME, organism-based. Also on record: dose 2 mg/kg, route intravenous. Conditions: in vivo, read-out: Vdss.
Data set [11] in a line: Half life in rat at 2 mg/kg, iv. Conditions: in vivo. In kind it is ADME, organism-based. Also on record: dose 2 mg/kg, route intravenous.

As to `Clc1cnc2nc(Oc3ccc(CN4CCCCC4)cc3)sc2c1`, the values for the IC50 (in the data set listed under Mus musculus [1]; in [2]) were 245 nM and above 10000 nM, respectively.
In the case of `CC(=O)N1CC2CC1CN2CCc1ccc(Oc2nc3ncccc3s2)cc1` (centres undefined), the inhibition in vivo at 30 mg/kg in the data set filed under Mus musculus [3] amounted to 68%; in the data set filed under Mus musculus [4], 90%. The IC50 in the data set listed under Mus musculus [1] was 30 nM; in data set [5], 14 nM.
On to `CC(=O)N1CC2CN(CCOc3ccc(Oc4nc5ncccc5s4)cc3)CC2C1` (centres undefined), for which the figures for the inhibition in vivo at 30 mg/kg in the data set listed under Mus musculus [3] and in the data set filed under Mus musculus [4] were 86% and 81%, respectively. For the same compound, the values for the 50% inhibitory concentration (IC50) (in the data set listed under Mus musculus [1]; in data set [5]; in data set [2]) were 30 nM, 7 nM and above 10000 nM, respectively.
Consider `CC(=O)NC1CC2CCC(C1)N2CCc1ccc(Oc2nc3ncccc3s2)cc1` (centres undefined), for which the inhibition in vivo at 30 mg/kg worked out at 78% in the data set listed under Mus musculus [3] and 85% in the data set listed under Mus musculus [4]. Besides, the half-maximal inhibitory concentration (IC50) in [5] came to 0.3 nM.
Turning to `O=C1CCCN1C1CCN(Cc2ccc(Oc3nc4ncccc4s3)cc2)CC1`, the IC50 in [6] is above 10000 nM; in the data set listed under Mus musculus [1], 27 nM; in [5] it was 6 nM; in data set [2] it was above 10000 nM. Besides, the inhibition in vivo at 30 mg/kg in the data set filed under Mus musculus [3] worked out at 88%; in the data set filed under Mus musculus [4], 81%.
Turning to `NC(=O)C1CCN(CCc2ccc(Oc3nc4ncccc4s3)cc2)CC1`, the inhibition in vivo at 30 mg/kg was 60% in the data set listed under Mus musculus [3] and 76% in the data set listed under Mus musculus [4]. Further, the 50% inhibitory concentration (IC50) in the data set listed under Mus musculus [1] is 50 nM; in [5], 11 nM; in data set [2], above 10000 nM.
In [7], `CC(=O)NC1CC2CCC(C1)N2Cc1ccc(Oc2nc3ncccc3s2)cc1` (centres undefined) displayed a Cmax of 1200 nM. The bioavailability in [8] came to 65%. The compound further showed a clearance in data set [9] of 20 mL/min/kg. In addition, the Vd in [10] came out at 3.5 L/kg. The same compound had a half-life in data set [11] of 2 h. The inhibition in vivo at 30 mg/kg came out at 70% in the data set listed under Mus musculus [3] and 81% in the data set listed under Mus musculus [4]. Also, the IC50 amounted to 20 nM in the data set listed under Mus musculus [1] and 1 nM in [5].
Turning to `c1cnc2nc(Oc3ccc(OCCN4CCCCC4)cc3)sc2c1`, the inhibition in vivo at 30 mg/kg in the data set listed under Mus musculus [3] stood at 62%; in the data set listed under Mus musculus [4], 65%. Besides, the results for the IC50 (in the data set listed under Mus musculus [1]; in [5]) were 18 nM and 8 nM, respectively.
Turning to `c1cnc2nc(Oc3ccc(CCN4CCCCC4)cc3)sc2c1`, the inhibition in vivo at 30 mg/kg in the data set filed under Mus musculus [3] stood at 36%; in the data set filed under Mus musculus [4] it was 70%. For the same compound, the IC50 in the data set listed under Mus musculus [1] was 24 nM; in data set [2], above 10000 nM.
In the case of `CC(=O)N1CC2CC1CN2CCOc1ccc(Oc2nc3ncccc3s2)cc1` (centres undefined), the values for the inhibition in vivo at 30 mg/kg in the data set filed under Mus musculus [3] and in the data set listed under Mus musculus [4] were 72% and 84%, respectively. Moreover, the IC50 was found to be 18 nM in the data set listed under Mus musculus [1] and 7 nM in data set [5].
On to `CC(=O)N1CC2CN(CCc3ccc(Oc4nc5ncccc5s4)cc3)CC2C1` (centres undefined), for which the inhibition in vivo at 30 mg/kg in the data set listed under Mus musculus [3] was 79%; in the data set listed under Mus musculus [4], 86%. Also, the IC50 is 22 nM in the data set filed under Mus musculus [1], 6 nM in data set [5] and above 10000 nM in data set [2].
For the compound `c1cc2sc(Oc3ccc(CN4CCCCC4)cc3)nc2cn1`, the IC50 in data set [5] is 1800 nM.
In the case of `CC(=O)N1CC2CN(Cc3ccc(Oc4nc5ncccc5s4)cc3)CC2C1` (centres undefined), the inhibition in vivo at 30 mg/kg stood at 95% in the data set listed under Mus musculus [3] and 57% in the data set listed under Mus musculus [4]. In addition, the half-maximal inhibitory concentration (IC50) in the data set listed under Mus musculus [1] was 10 nM.
On to `NC(=O)C1CCN(Cc2ccc(Oc3nc4cccnc4s3)cc2)CC1`, for which the IC50 in the data set listed under Mus musculus [1] worked out at 2040 nM; in [5], 733 nM.
For `NC(=O)C1CCN(CCOc2ccc(Oc3nc4ncccc4s3)cc2)CC1`, the inhibition in vivo at 30 mg/kg worked out at 71% in the data set listed under Mus musculus [3] and 80% in the data set listed under Mus musculus [4]. The IC50 is 30 nM in the data set listed under Mus musculus [1], 16 nM in [5] and above 10000 nM in data set [2].
With `O=C1CCCN1C1CCN(CCc2ccc(Oc3nc4ncccc4s3)cc2)CC1`, the IC50 in data set [6] amounted to 2800 nM; in the data set listed under Mus musculus [1] it was 65 nM; in data set [5], 14 nM. Further, the inhibition in vivo at 30 mg/kg in the data set filed under Mus musculus [3] was found to be 75%; in the data set filed under Mus musculus [4] it was 86%.
On to `CC(=O)NC1CC2CCC(C1)N2CCOc1ccc(Oc2nc3ncccc3s2)cc1` (centres undefined), for which the figures for the inhibition in vivo at 30 mg/kg in the data set filed under Mus musculus [3] and in the data set listed under Mus musculus [4] were 74% and 85%, respectively. The figures for the IC50 (in the data set listed under Mus musculus [1]; in data set [5]) were 24 nM and 4 nM, respectively.
On to `O=C1CCCN1C1CCN(CCOc2ccc(Oc3nc4ncccc4s3)cc2)CC1`, for which the IC50 was 2500 nM in data set [6], 20 nM in the data set listed under Mus musculus [1], 6 nM in data set [5] and above 10000 nM in [2]. Besides, the figures for the inhibition in vivo at 30 mg/kg in the data set filed under Mus musculus [3] and in the data set filed under Mus musculus [4] were 76% and 89%, respectively.
`CC(=O)N1CC2CC1CN2Cc1ccc(Oc2nc3ncccc3s2)cc1` (centres undefined) showed a peak concentration (Cmax) in [7] of 3300 nM. Besides, in [8], the bioavailability came to 125%. This compound also showed a clearance in data set [9] of 7 mL/min/kg. Also, the Vd in [10] was 1.4 L/kg. In addition, the IC50 in data set [6] was above 10000 nM; in the data set listed under Mus musculus [1], 7 nM; in [5] it was 5 nM; in [2], above 10000 nM. In data set [11], the half-life is 3.3 h. Moreover, the inhibition in vivo at 30 mg/kg in the data set filed under Mus musculus [3] turned out to be 88%; in the data set filed under Mus musculus [4] it was 92%.
Take `NC(=O)C1CCN(Cc2ccc(Oc3nc4ncccc4s3)cc2)CC1`: the IC50 is above 10000 nM in [6], 37 nM in the data set listed under Mus musculus [1], 6 nM in [5] and 8900 nM in data set [2]. Moreover, the results for the inhibition in vivo at 30 mg/kg in the data set listed under Mus musculus [3] and in the data set listed under Mus musculus [4] were 89% and 85%, respectively.
As to `Cc1ccnc2nc(Oc3ccc(CN4CCCCC4)cc3)sc12`, the inhibition in vivo at 30 mg/kg in the data set listed under Mus musculus [3] was determined as 42%; in the data set listed under Mus musculus [4] it was 12%. This compound also came in with a concentration for half-maximal inhibition (IC50) in the data set filed under Mus musculus [1] of 82 nM.
`c1cnc2nc(Oc3ccc(CN4CCCCC4)cc3)sc2c1`: the inhibition in vivo at 30 mg/kg worked out at 48% in the data set listed under Mus musculus [3] and 67% in the data set filed under Mus musculus [4]. The IC50 in the data set filed under Mus musculus [1] is 14 nM; in data set [5], 3 nM; in data set [2], above 10000 nM.
With `c1cc2nc(Oc3ccc(CN4CCCCC4)cc3)sc2cn1`, the concentration for half-maximal inhibition (IC50) in the data set listed under Mus musculus [1] is 723 nM; in data set [5], 614 nM.
